We go through nine compounds from the NIST ThermoML archive (doi:10.1016/j.tca.2018.08.022).

Numbers after ± are expanded uncertainties.

For series [1] the following is noted: for mass density: 101.33 kPa, X-ray diffraction.
Series [2] can be described thus: Molar enthalpy of transition or fusion. The settings on record: DSC.

By mass density is commonly meant the mass of a sample divided by its volume. For `CCCCN(CCCC)c1ccc(N=Nc2ccc(-c3ccc4c(c3)C(=O)NC4=O)c(C#N)c2)cc1`, the mass density in series [1] (200 K, Crystal 2) was found to be 1262 ± 7 kg/m3. For the same compound, the Triple point temperature in series [1] (Crystal 1, DSC) was found to be 456.85 ± 0.8 K; in series [1] (Crystal 2, DSC), 436.45 ± 0.8 K. Further, the “Molar enthalpy of transition or fusion” value in series [2] (Crystal 1) was determined as 6.72 ± 0.239 kcal/mol; in series [2] (Crystal 2), 0.621 ± 0.0478 kcal/mol.

As for `N#Cc1ccc(-c2ccc([N+](=O)[O-])cc2C#N)cc1C#N` [4-nitro-[1,1'-biphenyl]-2,3',4'-tricarbonitrile], in series [1] (Crystal, visual observation), the Triple point temperature stood at 472.15 ± 3 K.

As for `CCCCN(CCCC)c1ccc(N=Nc2cccc(C#N)c2-c2ccc(C#N)c(C#N)c2)cc1`, the mass density in series [1] (296 K, Crystal 2) amounted to 1180 ± 6 kg/m3. Moreover, the Triple point temperature is 469.05 ± 0.8 K in series [1] (Crystal 1, DSC) and 386.25 ± 0.8 K in series [1] (Crystal 2, DSC). Also, the “Molar enthalpy of transition or fusion” value came to 8.48 ± 0.311 kcal/mol in series [2] (Crystal 1) and 0.645 ± 0.0478 kcal/mol in series [2] (Crystal 2).

As to `N#Cc1ccc(-c2ccc(N)cc2C#N)cc1C#N` [4-amino-[1,1'-biphenyl]-2,3',4'-tricarbonitrile], the Triple point temperature in series [1] (Crystal, visual observation) was 558.15 ± 3 K.

`CCCCCCCCN(CCCCCCCC)c1ccc(N=Nc2ccc(-c3ccc(C#N)c(C#N)c3)c(C#N)c2)cc1`: in series [1] (296 K, Metastable crystal), the mass density was 1124 ± 7 kg/m3. The Triple point temperature is recorded as 368.35 ± 0.8 K in series [1] (Crystal 1, DSC) and 365.05 ± 0.8 K in series [1] (Metastable crystal, DSC).

Consider `CCN(CC)c1ccc(N=Nc2ccc(-c3ccc(C#N)c(C#N)c3)c(C#N)c2)cc1`, for which the mass density in series [1] (296 K, Crystal 2) is 1217 ± 8 kg/m3. Moreover, the Triple point temperature came out at 503.45 ± 0.8 K in series [1] (Crystal 1, DSC); 487.95 ± 0.8 K in series [1] (Crystal 2, DSC); 489.35 ± 0.8 K in series [1] (Metastable crystal, DSC). Moreover, the figures for the “Molar enthalpy of transition or fusion” value in series [2] (Crystal 1) and in series [2] (Crystal 2) were 8.13 ± 0.287 kcal/mol and 1.31 ± 0.0717 kcal/mol, respectively.

In the case of `N#Cc1cc([N+](=O)[O-])ccc1-c1ccc2c(c1)C(=O)NC2=O` [2-(1,3-dioxoisoindolin-5-yl)-5-nitrobenzonitrile], the Triple point temperature in series [1] (Crystal, visual observation) was determined as 567.15 ± 3 K.

In the case of `N#Cc1cc(N)ccc1-c1ccc2c(c1)C(=O)NC2=O` [5-amino-2-(1,3-dioxoisoindolin-5-yl)benzonitrile], the Triple point temperature in series [1] (Crystal, visual observation) was 589.15 ± 3 K.

As for `CCCCN(CCCC)c1ccc(N=Nc2ccc(-c3ccc(C#N)c(C#N)c3)c(C#N)c2)cc1`, in series [1] (296 K, Crystal 1), the mass density came to 1165 ± 6 kg/m3. For the same compound, the Triple point temperature in series [1] (Crystal 1, DSC) is recorded as 427.35 ± 0.8 K; in series [1] (Metastable crystal, DSC), 403.45 ± 0.8 K. Besides, the Glass transition temperature in series [1] (Glass, DSC) is 42.00 ± 0.8 °C. In addition, in series [2] (Crystal 1), the “Molar enthalpy of transition or fusion” value amounted to 8.39 ± 0.311 kcal/mol.
